Patent publication US20150125452A1, “COMBINATION TREATMENTS COMPRISING C-MET ANTAGONISTS AND B-RAF ANTAGONISTS” (GENENTECH, INC., priority 2011, published 2015)

What was measured:
[1] = system: kinase-addicted cancer cell lines; experiment: RTK ligand matrix screen, Syto 60 cell viability; format: cell-based, Human
Protocol: (§1) Cell viability was assessed using the nucleic acid stain Syto 60 (Invitrogen). Cells (3000-5000 per well) were seeded into 96 well plates and allowed to adhere overnight. The next day, cells were treated with (or without) 50 ng/mL RTK ligand and concomitantly exposed to an increasing concentration range of the relevant kinase inhibitor. Following 72 hours drug exposure, cells were fixed in 4% formaldehyde, stained with Syto 60 and cell number was assessed using an Odyssey scanner (Li-Cor). Cell viability was calculated by dividing the fluorescence obtained from the drug-treated cells by the fluorescence obtained from the control (no drug) treated cells.
Cell lines. Human cancer cell lines were obtained and tested for sensitivity using an automated platform as previously described (Johannessen, C. M. et al. COT drives resistance to RAF inhibition through MAP kinase pathway reactivation. Nature 468, 968-972, doi:10.1038/nature09627 (2010)). Cell lines were maintained at 37° C. in a humidified atmosphere at 5% CO2 and grown in RPMI 1640 or DMEM/F12 growth media (GIBCO) supplemented with 10% fetal bovine serum (GIBCO), 50 units/mL penicillin and 50 μg/mL streptomycin (GIBCO).
Using 41 different human tumor-derived cell lines with previously defined kinase dependency^7-9, we undertook a “matrix analysis” to examine the effects of 6 different RTK ligands (HGF, EGF, FGF, PDGF, NRG1, IGF)—known to be widely expressed in cancer cells and tumor stroma^10—on drug response. Specifically, we quantified the effect of exposing these cancer cell lines (e.g., AU565 (HER2 amp)) to each ligand on the IC50 for a kinase inhibitor (e.g., lapatinib) that otherwise potently suppresses their growth within 72 hours (FIG. 1A). Nearly all of the kinase-dependent cancer cell lines tested, which included cells derived from multiple tissue types and with distinct kinase dependencies (EGFR, HER2, BRAF, MET, ALK, PDGFR, and FGFR), could be rescued from drug-induced growth inhibition by one or more RTK ligands, highlighting the potentially broad contribution of these ligands to the response to selective kinase inhibitors in kinase-addicted tumor cells (FIG. 1B).

[2] = system: HER2-amplified breast cancer cell lines; experiment: Syto 60 cell viability, ligand rescue from lapatinib; format: cell-based, Human; conditions: 50 ng/mL ligand, 72 h
Protocol: as §1
The ability of HGF to rescue 3 of 9 tested HER2-amplified breast cancer cell lines from growth inhibition by the HER2 kinase inhibitor lapatinib was also unexpected (FIG. 3A). These 3 cell lines all express MET, and expression was well correlated with the ability of HGF to attenuate lapatinib response (FIG. 3B).

HGF: recombinant human RTK ligand (MET ligand) purchased from Peprotech
effect of RTK ligand on conferring drug resistance to kinase inhibitors ([1]; 50 ng/mL RTK ligand, 72 h, 41 cell lines): most broadly active ligands | effect of HGF on response to PLX[…] ([1]; BRAF mutant PLX[…]-sensitive melanoma and colorectal cell lines): significantly attenuated the response | rescue despite activation of receptor and a downstream survival effector ([1]; H2228 and H358 cells with HGF, COLO-201 cells with NRG1): not sufficient to rescue cells from kinase inhibition | number of HER2-amplified breast cancer cell lines rescued from lapatinib [2]: 3 of 9
